Several values for one entry are separate records, joined by “and”; a condition that tells them apart may be missing. Equal values may be shown once. Toxic doses and inconclusive results are not listed. Rule for the calls: active = survival T/C of 150% or more; inactive = T/C below 125% in these data.
Tested on: BDF1 mice, B16 melanoma ip, median survival T/C
Test: NCI In Vivo Anticancer Drug Screen. Data for tumor model B16 Melanoma (intraperitoneal) in B6D2F1 (BDF1) mice
Conditions: endpoint: median survival time, higher = longer survival
Outline: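 Values are ratios of treated (T) to vehicle-control (C) measurements of survival or tumor size in tumor-bearing mice.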

[1] = dose: 5.0 mg/kg/injection, schedule: Q01DX009 (ip), vehicle: saline with Tween-80
[2] = dose: 10.0 mg/kg/injection, schedule: Q01DX009 (ip), vehicle: saline with Tween-80
[3] = dose: 20.0 mg/kg/injection, schedule: Q01DX009 (ip), vehicle: saline with Tween-80
[4] = dose: 40.0 mg/kg/injection, schedule: Q01DX009 (ip), vehicle: saline with Tween-80
[5] = dose: 80.0 mg/kg/injection, schedule: Q01DX009 (ip), vehicle: saline with Tween-80
[6] = dose: 25.0 mg/kg/injection, schedule: Q01DX009 (ip), vehicle: saline with Tween-80
[7] = dose: 50.0 mg/kg/injection, schedule: Q01DX009 (ip), vehicle: saline with Tween-80
[8] = dose: 100.0 mg/kg/injection, schedule: Q01DX009 (ip), vehicle: saline with Tween-80
[9] = dose: 100.0 mg/kg/injection, schedule: Q01DX009 (ip), vehicle: Klucel (hydroxypropylcellulose) (HPC)
[10] = dose: 100.0 mg/kg/injection, schedule: Q04DX003 (ip), vehicle: Klucel (hydroxypropylcellulose) (HPC)
[11] = dose: 25.0 mg/kg/injection, schedule: Q01DX009 (ip), vehicle: Klucel (hydroxypropylcellulose) (HPC)
[12] = dose: 50.0 mg/kg/injection, schedule: Q01DX009 (ip), vehicle: Klucel (hydroxypropylcellulose) (HPC)
[13] = dose: 12.5 mg/kg/injection, schedule: Q01DX009 (ip), vehicle: Klucel (hydroxypropylcellulose) (HPC)
[14] = dose: 6.25 mg/kg/injection, schedule: Q01DX009 (ip), vehicle: saline
[15] = dose: 12.5 mg/kg/injection, schedule: Q01DX009 (ip), vehicle: saline
[16] = dose: 25.0 mg/kg/injection, schedule: Q01DX009 (ip), vehicle: saline
[17] = dose: 50.0 mg/kg/injection, schedule: Q01DX009 (ip), vehicle: saline
[18] = dose: 100.0 mg/kg/injection, schedule: Q01DX009 (ip), vehicle: saline
[19] = dose: 200.0 mg/kg/injection, schedule: Q01DX009 (ip), vehicle: Klucel (hydroxypropylcellulose) (HPC)
[20] = dose: 200.0 mg/kg/injection, schedule: Q01DX009 (ip), vehicle: saline with Tween-80
[21] = dose: 400.0 mg/kg/injection, schedule: Q01DX009 (ip), vehicle: Klucel (hydroxypropylcellulose) (HPC)

Measured: T/C

O=[N+]([O-])c1ccc(Cl)c([N+](=O)[O-])c1
inactive: [1] 100 % of control and 112 % of control | [2] 94 % of control and 99 % of control | [3] 99 % of control and 102 % of control | [4] 98 % of control and 107 % of control | [5] 100 % of control and 108 % of control

CCCCNC(=S)N/N=C/c1ccccn1
inactive: [6] 102 % of control | [7] 99 % of control | [8] 104 % of control

CCCCCCC(=O)C(CCCC)(C(=O)OCC)C(=O)OCC
inactive: [9] 89 % of control

C=C1CCN2CCCC12 (configuration not stated)
inactive: dose: 10.0 mg/kg/injection, schedule: Q01DX009 (ip), vehicle: saline 107 % of control | dose: 20.0 mg/kg/injection, schedule: Q01DX009 (ip), vehicle: saline 104 % of control | dose: 40.0 mg/kg/injection, schedule: Q01DX009 (ip), vehicle: saline 100 % of control | dose: 80.0 mg/kg/injection, schedule: Q01DX009 (ip), vehicle: saline 95 % of control

C=CCOC(=O)C1CC(C(=O)OCC=C)C(C(=O)OCC=C)C1C(=O)OCC=C (configuration not stated)
inactive: dose: 50.0 mg/kg/injection, schedule: Q01DX009 (ip), vehicle: other 96 % of control | dose: 100.0 mg/kg/injection, schedule: Q01DX009 (ip), vehicle: other 105 % of control | dose: 200.0 mg/kg/injection, schedule: Q01DX009 (ip), vehicle: other 98 % of control

CCCN(CCC)CC(C)=O
inactive: [10] 107 % of control | dose: 200.0 mg/kg/injection, schedule: Q04DX003 (ip), vehicle: Klucel (hydroxypropylcellulose) (HPC) 97 % of control

[Cl][Pt+2][Cl].[NH-]c1cc2ccccc2cc1[NH-]
inactive: [3] 113 % of control | [4] 122 % of control | [5] 120 % of control | dose: 160.0 mg/kg/injection, schedule: Q01DX009 (ip), vehicle: saline with Tween-80 87 % of control | dose: 320.0 mg/kg/injection, schedule: Q01DX009 (ip), vehicle: saline with Tween-80 118 % of control

O=c1[nH]c(=O)n(C2CC(O)C(CO)O2)cc1Br (configuration not stated)
inactive: [11] 101 % of control | [12] 117 % of control

O=C(O)c1c(O)c(-c2ccccc2)nc2ccccc12
inactive: [12] 103 % of control | [9] 103 % of control

COc1cccc(CN2CCCNCC2)c1
inactive: dose: 6.25 mg/kg/injection, schedule: Q01DX009 (ip), vehicle: water 102 % of control | dose: 12.5 mg/kg/injection, schedule: Q01DX009 (ip), vehicle: water 115 % of control | dose: 25.0 mg/kg/injection, schedule: Q01DX009 (ip), vehicle: water 114 % of control | dose: 50.0 mg/kg/injection, schedule: Q01DX009 (ip), vehicle: water 100 % of control

C[C@@H]1CC2=CC(=O)C=C[C@]2(C)[C@H]2CC[C@@]3(C)[C@@H](CC[C@]3(C)O)[C@H]12
inactive: dose: 6.25 mg/kg/injection, schedule: Q01DX009 (ip), vehicle: Klucel (hydroxypropylcellulose) (HPC) 107 % of control | [13] 103 % of control | [11] 102 % of control | [12] 95 % of control | [9] 93 % of control

CC(N)Cc1ccccc1 (configuration not stated)
inactive: dose: 3.12 mg/kg/injection, schedule: Q01DX009 (ip), vehicle: saline 105 % of control | [14] 100 % of control | [15] 105 % of control | [16] 97 % of control | [17] 97 % of control | [18] 95 % of control

Cc1ccc(NC(=O)c2ccccc2C(=O)O)cc1Cl
inactive: [9] 94 % of control | [19] 94 % of control

O=C(Nc1ccc(Cl)cc1)Nc1ccccc1F
inactive: [8] 89 % of control | [20] 86 % of control

CC(C)(N)Cc1ccc(Cl)cc1
inactive: [14] 110 % of control | [15] 90 % of control | [16] 97 % of control | [17] 100 % of control | [18] 100 % of control

COc1cc2c(cc1Oc1c(Oc3c(O)c(OC)cc4c3C(CC(C)C)N(C)CC4)c(OC)cc3c1C(CC(C)C)N(C)CC3)C(CC(C)C)N(C)CC2 (configuration not stated)
inactive: [13] 100 % of control | [11] 96 % of control | [12] 110 % of control

CC(=O)/C=C/c1ccc(O)cc1
inactive: [9] 113 % of control | [19] 116 % of control | [21] 93 % of control

CCCC1CC[N-]CC1.CCCC1CC[N-]CC1.CCCC1CC[N-]CC1.CCCC1CC[N-]CC1.[Cl][Rh][Cl]
inactive: dose: 0.37 mg/kg/injection, schedule: Q01DX009 (ip), vehicle: Klucel (hydroxypropylcellulose) (HPC) 104 % of control | dose: 0.75 mg/kg/injection, schedule: Q01DX009 (ip), vehicle: Klucel (hydroxypropylcellulose) (HPC) 102 % of control | dose: 1.5 mg/kg/injection, schedule: Q01DX009 (ip), vehicle: Klucel (hydroxypropylcellulose) (HPC) 100 % of control | dose: 1.56 mg/kg/injection, schedule: Q01DX009 (ip), vehicle: saline with Tween-80 109 % of control | dose: 3.13 mg/kg/injection, schedule: Q01DX009 (ip), vehicle: saline with Tween-80 116 % of control | dose: 6.25 mg/kg/injection, schedule: Q01DX009 (ip), vehicle: saline with Tween-80 98 % of control

COc1ccc(Cl)cc1NC(=O)c1ccccc1Cl
inactive: [9] 102 % of control | [19] 108 % of control | [21] 100 % of control

CCCCN(CCCC)c1ccc(C(=O)O)cc1
inactive: [7] 102 % of control | [8] 94 % of control | [20] 103 % of control

C1OCN2CSCC12 (configuration not stated)
inactive: dose: 12.5 mg/kg/injection, schedule: Q01DX009 (ip), vehicle: saline with Tween-80 108 % of control | [6] 109 % of control | [7] 101 % of control | [8] 106 % of control

NC1=NC(=O)N2CC12 (configuration not stated)
inactive: [15] 100 % of control | [16] 103 % of control | [17] 105 % of control | [18] 103 % of control

CN(C)CC(C(=O)c1ccc(Br)cc1)C(Br)c1ccccc1 (configuration not stated)
inactive: [1] 101 % of control | [2] 108 % of control | [3] 101 % of control | [4] 111 % of control

CCOc1ccc2nc(Cl)sc2c1
inactive: [10] 105 % of control

CCO/C=C1\SC(=S)N(c2ccccc2C)C1=O
inactive: [6] 92 % of control | [7] 90 % of control | [8] 91 % of control

CCC[CH2][Sn]1([CH2]CCC)[O]OC2(CCCCC2)[O]1
inactive: dose: 1.25 mg/kg/injection, schedule: Q01DX009 (ip), vehicle: saline with Tween-80 113 % of control | dose: 2.5 mg/kg/injection, schedule: Q01DX009 (ip), vehicle: saline with Tween-80 100 % of control

CC12C=CC(=O)C=C1CCC1C2C(O)CC2(C)C1CCC2(O)C(=O)COC(=O)CCCc1ccc(N(CCCl)CCCl)cc1 (configuration not stated)
inactive: dose: 15.0 mg/kg/injection, schedule: Q01DX011 (ip), vehicle: saline 119 % of control

O=C(NC(Cc1ccccc1)C(=O)NC(Cc1c[nH]c2ccccc12)C(=O)O)OCc1ccccc1 (configuration not stated)
inactive: [7] 98 % of control | [8] 100 % of control | [20] 94 % of control

CCN(CC)CCOC(=O)c1ccc(NC(=O)Nc2ccc(C(=O)OCCN(CC)CC)cc2)cc1
inactive: [14] 95 % of control | [15] 88 % of control | [6] 97 % of control | [16] 102 % of control | [7] 110 % of control | [8] 108 % of control

Reference: PubChem BioAssay AID192 (DTP/NCI, 2004)
